Results taken from ChEMBL document CHEMBL5096230 (J Med Chem, 2022).

Legend:
Format in all cases: organism-based
Conditions in all cases: in vivo, 120 h, time 5 day
[1] = Toxicity in BALB/c mouse at 50 mg/kg, iv administered daily for 5 days
[2] = Toxicity in BALB/c mouse assessed as animal death at 8 mg/kg, iv administered daily for 5 days and measured after 2 dose
[3] = Toxicity in BALB/c mouse assessed as lethargy at 8 mg/kg, iv administered daily for 5 days

Structure (SMILES): CC(=O)O[C@H]1C(=O)[C@@]2(C)[C@H]([C@H](OC(=O)c3ccccc3)[C@]3(O)C[C@H](OC(=O)[C@H](OC(=O)CCCCCn4cc(CCCC(=O)NCCCC[C@H](NC(=O)CNC(=O)[C@H](CCCCNC(=O)CNC(=O)[C@@H]5CCCN5C(=O)[C@H](CCCNC(=N)N)NC(=O)[C@H](Cc5ccccc5)NC(=O)[C@@H]5CCCN5C(=O)[C@@H](NC(=O)[C@H](C)NC(=O)[C@H](CC(=O)O)NC(=O)[C@@H]5CCCN5C(=O)[C@H](Cc5ccc(-c6ccccc6C(F)(F)F)cc5)NC(=O)[C@H](C)NC(=O)[C@H](CC(C)C)NC(=O)[C@H](Cc5ccc(N)cc5)NC(=O)CN5CCNCC5)C5CCCCC5)NC(=O)CNC(=O)[C@@H]5CCCN5C(=O)[C@H](CCCNC(=N)N)NC(=O)[C@H](Cc5ccccc5)NC(=O)[C@@H]5CCCN5C(=O)[C@@H](NC(=O)[C@H](C)NC(=O)[C@H](CC(=O)O)NC(=O)[C@@H]5CCCN5C(=O)[C@H](Cc5ccc(-c6ccccc6C(F)(F)F)cc5)NC(=O)[C@H](C)NC(=O)[C@H](CC(C)C)NC(=O)[C@H](Cc5ccc(N)cc5)NC(=O)CN5CCNCC5)C5CCCCC5)C(N)=O)nn4)[C@@H](NC(=O)c4ccccc4)c4ccccc4)C(C)=C1C3(C)C)[C@]1(OC(C)=O)CO[C@@H]1C[C@@H]2O
- Activity [1]: Non-Toxic

Structure (SMILES): CC(C)C[C@H](NC(=O)[C@H](Cc1ccc(N)cc1)NC(=O)CN1CCNCC1)C(=O)N[C@@H](C)C(=O)N[C@@H](Cc1ccc(-c2ccccc2C(F)(F)F)cc1)C(=O)N1CCC[C@H]1C(=O)N[C@@H](CC(=O)O)C(=O)N[C@@H](C)C(=O)N[C@H](C(=O)N1CCC[C@H]1C(=O)N[C@@H](Cc1ccccc1)C(=O)N[C@@H](CCCNC(=N)N)C(=O)N1CCC[C@H]1C(=O)NCC(=O)NCCCC[C@H](NC(=O)CNC(=O)[C@@H]1CCCN1C(=O)[C@H](CCCNC(=N)N)NC(=O)[C@H](Cc1ccccc1)NC(=O)[C@@H]1CCCN1C(=O)[C@@H](NC(=O)[C@H](C)NC(=O)[C@H](CC(=O)O)NC(=O)[C@@H]1CCCN1C(=O)[C@H](Cc1ccc(-c2ccccc2C(F)(F)F)cc1)NC(=O)[C@H](C)NC(=O)[C@H](CC(C)C)NC(=O)[C@H](Cc1ccc(N)cc1)NC(=O)CN1CCNCC1)C1CCCCC1)C(=O)NCC(=O)N[C@@H](CCCCNC(=O)CCCc1cn(CCCCCC(=O)O)nn1)C(N)=O)C1CCCCC1
- Activity [1]: Non-Toxic

Structure (SMILES): CC(=O)O[C@H]1C(=O)[C@@]2(C)[C@H]([C@H](OC(=O)c3ccccc3)[C@]3(O)C[C@H](OC(=O)[C@H](O)[C@@H](NC(=O)c4ccccc4)c4ccccc4)C(C)=C1C3(C)C)[C@]1(OC(C)=O)CO[C@@H]1C[C@@H]2O [PACLITAXEL]
- Activity [2]: Toxic
- Activity [3]: Toxic
